Values quoted from earlier work, collected in patent US20050009782A1, “Antiviral charged polymers that exhibit resistance to lysosomal degradation during kidney filtration and renal passage, compositions and methods of use thereof” (priority 2003, published 2005).

How the values were obtained:
HIV [1] = conditions: for In vitro activity: listed virus = activity demonstrated; for inhibition of HIV replication: in vitro; for inhibition of HIV replication / inhibition of HIV in vitro: reported in literature
HSV = conditions: for In vitro activity: listed virus = activity demonstrated; for inhibition of herpes simplex viruses in vitro: reported in literature
HSV-1 = conditions: listed virus = activity demonstrated
mumps = conditions: listed virus = activity demonstrated
CMV = conditions: for In vitro activity: listed virus = activity demonstrated; for inhibition of cytomegaloviruses in vitro: reported in literature
measles = conditions: listed virus = activity demonstrated
Chlamydia = conditions: listed organism = activity demonstrated
MLV = conditions: listed virus = activity demonstrated
semlikiviruses = conditions: reported in literature
Denge virus = conditions: listed virus = activity demonstrated
HHV-7 = conditions: listed virus = activity demonstrated
paramyxoviruses = conditions: reported in literature
RLV = conditions: listed virus = activity demonstrated
HIV-1 = conditions: listed virus = activity demonstrated
HSV-2 = conditions: listed virus = activity demonstrated
HIV [2] = test system: HIV

Molecule: 2-acetamido-2-deoxy-3-O-sulfo(14)-beta-D-glycopyranan
- In vitro activity (HIV [1]): HIV

Molecule: 3′ sulfogalactosylceramide [Sulfatide (3′ sulfogalactosylceramide)]
- In vitro activity (HIV [1]): HIV

Molecule: N[C@H]1C(O)O[C@H](COS(=O)(=O)O)[C@@H](O)[C@@H]1O (stereo partly drawn) [Glucosamine-6-sulfate (monosaccharide), Glucosamine-6-sulfate]
- In vitro activity (HIV [1]): HIV

Molecule: O=S(=O)(O)OC1C(OS(=O)(=O)O)C(OS(=O)(=O)O)C(OS(=O)(=O)O)C(OS(=O)(=O)O)C1OS(=O)(=O)O (stereo not drawn) [Inositol hexasulfate]
- In vitro activity (HIV [1]): HIV

Molecule: CCCCCCCCCCCCOS(=O)(=O)[O-].[Na+] [Sodium lauryl sulfate]
- In vitro activity (HSV): HSV
- In vitro activity (HIV [1]): HIV

Molecule: (14)-2-deoxy-2-sulfamido-3-O-sulfo-(14)-beta-D-glycopyranan
- In vitro activity (HIV [1]): HIV

Molecule: Achranthese bidentata polysaccharide sulfate
- In vitro activity (HSV-1): HSV-1

Molecule: Calcium spirulan
- In vitro activity (mumps): mumps
- In vitro activity (CMV): CMV
- In vitro activity (HSV-1): HSV-1
- In vitro activity (measles): measles
- In vitro activity (HIV [1]): HIV

Molecule: Carboxymethylchitin
- In vitro activity (HSV): HSV

Molecule: Chondroitin polysulfate
- In vitro activity (HIV [1]): HIV

Molecule: Curdlan sulfate
- In vitro activity (CMV): CMV
- In vitro activity (HIV [1]): HIV

Molecule: Fucoidin
- In vitro activity (Chlamydia): Chlamydia
- inhibition of HIV replication (HIV [1]): inhibit HIV replication
- In vitro activity (HIV [1]): HIV

Molecule: Galactan sulfate
- In vitro activity (HSV-1): HSV-1
- In vitro activity (HIV [1]): HIV

Molecule: Glycyrrhizin sulfate
- In vitro activity (HIV [1]): HIV

Molecule: Heparin
- In vitro activity (MLV): virus, MLV
- inhibition of semlikiviruses in vitro (semlikiviruses): potent inhibitors
- In vitro activity (Denge virus): ASFV, Denge
- In vitro activity (ASFV): ASFV, Denge
- In vitro activity (HHV-7): HHV-7
- inhibition of cytomegaloviruses in vitro (CMV): potent inhibitors
- inhibition of paramyxoviruses in vitro (paramyxoviruses): potent inhibitors
- inhibition of influenza viruses in vitro (influenza viruses): potent inhibitors
- inhibition of herpes simplex viruses in vitro (HSV): potent inhibitors
- inhibition of HIV replication (HIV [1]): inhibit HIV replication
- In vitro activity (HIV [1]): HIV
- inhibition of HIV in vitro (HIV [1]): potent inhibitors

Molecule: Lentinan sulfate
- inhibition of HIV replication (HIV [1]): inhibit HIV replication
- In vitro activity (HIV [1]): HIV

Molecule: Mannan sulfate
- inhibition of HIV replication (HIV [1]): inhibit HIV replication
- In vitro activity (HIV [1]): HIV

Molecule: N-carboxymethylchitosan-N,O-sulfate
- In vitro activity (RLV): RLV
- In vitro activity (HIV [1]): HIV

Molecule: Pentosan polysulfate
- inhibition of semlikiviruses in vitro (semlikiviruses): potent inhibitors
- In vitro activity (Chlamydia): Chlamydia
- inhibition of cytomegaloviruses in vitro (CMV): potent inhibitors
- inhibition of paramyxoviruses in vitro (paramyxoviruses): potent inhibitors
- inhibition of influenza viruses in vitro (influenza viruses): potent inhibitors
- inhibition of herpes simplex viruses in vitro (HSV): potent inhibitors
- inhibition of HIV replication (HIV [1]): inhibit HIV replication
- In vitro activity (HIV [1]): HIV
- inhibition of HIV in vitro (HIV [1]): potent inhibitors

Molecule: Polyacetal polysulfate
- In vitro activity (HIV [1]): HIV

Molecule: Polyinosinic-polycytidylic acid
- In vitro activity (HIV [1]): HIV

Molecule: Prunellin
- In vitro activity (HIV [1]): HIV

Molecule: Rhamnan sulfate
- In vitro activity (CMV): CMV
- In vitro activity (HSV-1): HSV-1
- In vitro activity (HIV [1]): HIV

Molecule: Ribofuranan sulfate
- In vitro activity (HIV [1]): HIV

Molecule: Sulfate dodecyl laminarapentaoside
- In vitro activity (HIV [1]): HIV

Molecule: Sulfated N-deacetylatedchitin
- In vitro activity (HSV): HSV

Molecule: Sulfated octadecyl maltohexaoside
- In vitro activity (HIV [1]): HIV

Molecule: Sulfated octadecyl ribofurnans
- In vitro activity (HIV [1]): HIV

Molecule: Sulfated xylogalactans
- In vitro activity (HIV-1): HIV-1

Molecule: Sulfoevernan
- inhibition of HIV replication (HIV [1]): inhibit HIV replication
- In vitro activity (HIV [1]): HIV

Molecule: Xylomannan sulfate
- In vitro activity (HSV-2): HSV-2
- In vitro activity (HSV-1): HSV-1
- In vitro activity (HIV [1]): HIV

Molecule: dextran sulfate
- inhibition of semlikiviruses in vitro (semlikiviruses): potent inhibitors
- activity against HIV in vivo (HIV [2]; commercial dextran sulfate): poor activity
- beneficial effect in vivo (HIV [2]; continuous infusion, subjects with symptomatic HIV infection, up to 14 days): lack of any demonstration of beneficial effect in vivo
- inhibition of cytomegaloviruses in vitro (CMV): potent inhibitors
- toxicity of continuous intravenous infusion (continuous infusion to maximally tolerated dose, subjects with symptomatic HIV infection, up to 14 days): toxic
- toxicity in mammals and HIV patients (mammals and HIV patients): significant toxicity
- inhibition of paramyxoviruses in vitro (paramyxoviruses): potent inhibitors
- inhibition of influenza viruses in vitro (influenza viruses): potent inhibitors
- inhibition of herpes simplex viruses in vitro (HSV): potent inhibitors
- inhibition of HIV replication (HIV [1]): inhibit HIV replication
- inhibition of HIV in vitro (HIV [1]): potent inhibitors

Molecule: dextrin sulfate
- inhibition of HIV replication (HIV [1]): inhibit HIV replication

Molecule: iota-carrageenan
- inhibition of HIV replication (HIV [1]): inhibit HIV replication

Molecule: kappa-carrageenan
- inhibition of HIV replication (HIV [1]): inhibit HIV replication

Molecule: lambda-carrageenan
- inhibition of HIV replication (HIV [1]): inhibit HIV replication

Molecule: sulfated cyclodextrins
- inhibition of HIV replication (HIV [1]): inhibit HIV replication

B1: Cyanovirin-N (from cyanobacterium): Cyanovirin-N from cyanobacterium (protein, UniProt P81180 1-101, looked up)
Cyanovirin-N: LGKFSQTCYNSAIQGSVLTSTCERTNGGYNTSSIDLNSVIENVDGSLKWQPSNFIETCRNTQLAGSSELAAECKTRAQQFVSTKINLDDHIANIDGTLKYE
- In vitro activity (HIV [1]): HIV
